Earlier results on two compounds are cited in patent US20230414697A1, “ENHANCED GINGEROLS FOR PATIENTS SUFFERING FROM NAUSEA AND EMESIS” (Aphios Corporation, priority 2020, published 2023).

SMILES strings stand for the structures.

The conditions of data set [1]: 2.0 gm oral ginger, 1.25 mg intravenous droperidol, placebo; 24 hour period following surgery.
For data set [2] the following is noted: post-operative; reported by Bone and colleagues.
For data set [3] the following is noted: ginger 0.5 gm or 1 gm, metochlopramide 10 mg.

As for `O=C(CCCN1CC=C(n2c(=O)[nH]c3ccccc32)CC1)c1ccc(F)cc1` [droperidol], the “differences in frequency or severity of post-operative nausea or frequency of post-operative vomiting” value in data set [1] is listed as “no differences”.

On to `CCN(CC)CCNC(=O)c1cc(Cl)c(N)cc1OC` [metochlopramide], for which the “frequency of emesis, differences between the three arms” value (ginger, metochlopramide, placebo, post-operative) was “no significant differences”. Moreover, under “post operative, placebo 41%”, the patients nauseated entry was “placebo, 27%”. Besides, the vomiting vs placebo result in data set [2] is reported as “less vomiting”. Besides, the “post-operative nausea vs placebo” value in data set [3] (both studies) is “significantly more effective than placebo”. In data set [3] (women undergoing gynecologic surgery, two studies), the “effectiveness for post-operative nausea, ginger compared with metochlopramide” value was “equal effectiveness”.
